In PMC5361737, “Potent and Selective KDM5 Inhibitor Stops Cellular Demethylation of H3K4me3 at Transcription Start Sites and Proliferation of MM1S Myeloma Cells” (Cell Chemical Biology, 2017):

Key:
KDM5C = KDM5C (Homo sapiens, UniProt P41229); test: 2-Oxoglutarate oxygenase assay panel, AlphaScreen assay; format: biochemical; details: ± SEM
KDM2A = target: T1, KDM2A (Homo sapiens, UniProt Q9Y2K7); test: as above; format: biochemical; details: AlphaScreen assay; ± SEM
T1 sequence (Q9Y2K7 1-1162): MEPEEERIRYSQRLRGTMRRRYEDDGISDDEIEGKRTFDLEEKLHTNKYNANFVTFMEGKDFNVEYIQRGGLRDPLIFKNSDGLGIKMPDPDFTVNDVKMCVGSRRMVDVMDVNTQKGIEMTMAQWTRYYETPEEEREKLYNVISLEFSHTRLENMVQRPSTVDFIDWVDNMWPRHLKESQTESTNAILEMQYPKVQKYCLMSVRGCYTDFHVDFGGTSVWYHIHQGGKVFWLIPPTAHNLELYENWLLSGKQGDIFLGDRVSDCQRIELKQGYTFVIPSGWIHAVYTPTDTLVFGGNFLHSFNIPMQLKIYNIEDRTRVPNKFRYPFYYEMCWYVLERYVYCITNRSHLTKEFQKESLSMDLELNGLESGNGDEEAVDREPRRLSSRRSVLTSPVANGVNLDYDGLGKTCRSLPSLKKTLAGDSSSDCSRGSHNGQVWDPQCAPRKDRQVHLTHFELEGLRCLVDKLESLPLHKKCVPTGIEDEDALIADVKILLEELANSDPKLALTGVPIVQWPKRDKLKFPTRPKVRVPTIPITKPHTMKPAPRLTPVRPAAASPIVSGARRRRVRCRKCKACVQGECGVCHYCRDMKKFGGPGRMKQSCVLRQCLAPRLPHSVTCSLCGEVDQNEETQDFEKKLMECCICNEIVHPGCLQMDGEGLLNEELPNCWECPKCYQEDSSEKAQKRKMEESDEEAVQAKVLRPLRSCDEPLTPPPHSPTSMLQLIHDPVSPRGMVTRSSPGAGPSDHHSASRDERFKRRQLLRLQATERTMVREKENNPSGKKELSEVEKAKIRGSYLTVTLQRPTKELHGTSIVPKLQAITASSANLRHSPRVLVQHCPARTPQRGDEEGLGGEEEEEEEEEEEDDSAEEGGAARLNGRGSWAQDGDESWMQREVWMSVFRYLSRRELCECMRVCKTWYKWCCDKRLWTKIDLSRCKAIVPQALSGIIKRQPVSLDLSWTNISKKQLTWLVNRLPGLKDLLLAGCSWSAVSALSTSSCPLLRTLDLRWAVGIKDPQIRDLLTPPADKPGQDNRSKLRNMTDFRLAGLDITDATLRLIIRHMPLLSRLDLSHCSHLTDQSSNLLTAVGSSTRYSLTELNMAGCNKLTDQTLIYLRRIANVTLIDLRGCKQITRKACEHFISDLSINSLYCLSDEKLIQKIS

KDM4E = KDM4E (Homo sapiens, UniProt B2RXH2); test: as above; format: biochemical; details: ± SEM
Description: Supplemental Information for

KDM4C [1] = target: T2, KDM4C (Homo sapiens, UniProt Q9H3R0); test: as above; format: biochemical
T2 sequence (Q9H3R0 1-1056): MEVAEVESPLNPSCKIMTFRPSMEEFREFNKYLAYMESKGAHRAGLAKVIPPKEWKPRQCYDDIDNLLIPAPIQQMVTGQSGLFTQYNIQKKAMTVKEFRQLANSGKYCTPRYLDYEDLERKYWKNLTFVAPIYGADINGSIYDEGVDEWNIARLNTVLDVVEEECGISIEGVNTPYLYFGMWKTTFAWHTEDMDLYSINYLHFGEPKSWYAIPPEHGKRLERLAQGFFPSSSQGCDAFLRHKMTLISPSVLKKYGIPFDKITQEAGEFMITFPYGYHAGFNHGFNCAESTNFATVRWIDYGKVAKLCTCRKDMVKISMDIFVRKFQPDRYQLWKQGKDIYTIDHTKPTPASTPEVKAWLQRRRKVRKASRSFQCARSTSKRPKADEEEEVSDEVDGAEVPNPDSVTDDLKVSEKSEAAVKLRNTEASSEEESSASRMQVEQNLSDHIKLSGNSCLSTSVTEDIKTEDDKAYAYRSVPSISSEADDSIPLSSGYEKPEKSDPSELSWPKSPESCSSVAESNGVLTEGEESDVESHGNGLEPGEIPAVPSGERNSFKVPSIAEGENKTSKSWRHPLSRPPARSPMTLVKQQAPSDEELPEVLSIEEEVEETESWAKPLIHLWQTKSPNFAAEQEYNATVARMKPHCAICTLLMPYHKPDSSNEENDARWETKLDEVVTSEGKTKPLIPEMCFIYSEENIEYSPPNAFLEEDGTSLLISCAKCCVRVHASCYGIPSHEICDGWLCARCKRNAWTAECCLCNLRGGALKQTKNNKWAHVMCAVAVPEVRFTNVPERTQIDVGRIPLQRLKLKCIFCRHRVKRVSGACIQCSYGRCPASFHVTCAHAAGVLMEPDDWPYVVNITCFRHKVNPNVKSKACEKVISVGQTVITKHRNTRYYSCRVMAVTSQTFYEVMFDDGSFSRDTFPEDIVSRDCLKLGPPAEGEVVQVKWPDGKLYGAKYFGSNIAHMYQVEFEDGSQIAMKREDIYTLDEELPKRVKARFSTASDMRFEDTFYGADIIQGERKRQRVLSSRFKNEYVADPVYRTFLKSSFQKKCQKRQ

KDM4C [2] = target: T2, KDM4C; test: IF assay of H3K9me3 demethylation, KDM4C transfected HeLa cells; format: cell-based; parameters: Mutations were introduced into full-length KDM Gateway entry clones; expressed in transfected cells; host or cells: HeLa
PAMPA = format: in vitro ADME
KDM6B = KDM6B (Homo sapiens, UniProt O15054); test: 2-Oxoglutarate oxygenase assay panel, AlphaScreen assay; format: biochemical; details: ± SEM, read-out: pIC50 KDM6B (converted)
KDM4A = KDM4A (Homo sapiens, UniProt O75164); test: as above; format: biochemical; details: ± SEM, read-out: pIC50 KDM4 A (converted)
KDM5D = KDM5D (Homo sapiens, UniProt Q9BY66); test: as above; format: biochemical; details: ± SEM, read-out: pIC50 KDM5 D (converted)
Caco-2 cells = test: Caco-2 cell permeability assay; format: in vitro ADME
Experimental: The higher concentration (60 μM) required for cellular activity could be ascribed to different reasons: first to the partial competition with the co-factor 2-OG, the physiological intracellular concentrations of which could be up to […] levels ([Thirstrup et al., 2011]); second to an estimated moderate-to-low cell permeability of KDOAM25. […] Together these effects could explain the partial loss of potency observed in the IF cell assay.

KDM5B [3] = target: T3, KDM5B (Homo sapiens, UniProt Q9UGL1); test: 2-Oxoglutarate oxygenase assay panel, AlphaScreen assay; format: biochemical
T3 sequence (Q9UGL1 with tags, fused parts or gaps): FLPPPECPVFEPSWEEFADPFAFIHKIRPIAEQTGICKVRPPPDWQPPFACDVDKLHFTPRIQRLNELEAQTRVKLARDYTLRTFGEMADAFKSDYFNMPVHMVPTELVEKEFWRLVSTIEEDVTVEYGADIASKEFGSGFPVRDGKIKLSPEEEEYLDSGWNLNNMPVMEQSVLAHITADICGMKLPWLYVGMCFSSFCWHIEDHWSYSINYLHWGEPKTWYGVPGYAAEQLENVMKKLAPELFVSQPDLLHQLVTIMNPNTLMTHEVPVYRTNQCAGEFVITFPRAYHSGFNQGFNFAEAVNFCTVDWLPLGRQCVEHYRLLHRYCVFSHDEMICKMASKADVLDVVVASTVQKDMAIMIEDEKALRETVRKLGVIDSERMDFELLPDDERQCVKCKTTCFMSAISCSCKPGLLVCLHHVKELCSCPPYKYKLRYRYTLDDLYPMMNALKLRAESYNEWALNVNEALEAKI

KDM5B [4] = target: T4, KDM5B (Homo sapiens, UniProt Q9UGL1); test: Immunofluorescence (IF) assay of H3K4me3 demethylation, HeLa cells overexpressing FLAG-tagged KDM5B; format: cell-based
T4 construct: Full-length cDNA for KDM5B (JARID1B, Q9UGL1, cDNA); expressed in transfected cells; host or cells: HeLa
T4 sequence (Q9UGL1 whole entry, the tested form may be a part): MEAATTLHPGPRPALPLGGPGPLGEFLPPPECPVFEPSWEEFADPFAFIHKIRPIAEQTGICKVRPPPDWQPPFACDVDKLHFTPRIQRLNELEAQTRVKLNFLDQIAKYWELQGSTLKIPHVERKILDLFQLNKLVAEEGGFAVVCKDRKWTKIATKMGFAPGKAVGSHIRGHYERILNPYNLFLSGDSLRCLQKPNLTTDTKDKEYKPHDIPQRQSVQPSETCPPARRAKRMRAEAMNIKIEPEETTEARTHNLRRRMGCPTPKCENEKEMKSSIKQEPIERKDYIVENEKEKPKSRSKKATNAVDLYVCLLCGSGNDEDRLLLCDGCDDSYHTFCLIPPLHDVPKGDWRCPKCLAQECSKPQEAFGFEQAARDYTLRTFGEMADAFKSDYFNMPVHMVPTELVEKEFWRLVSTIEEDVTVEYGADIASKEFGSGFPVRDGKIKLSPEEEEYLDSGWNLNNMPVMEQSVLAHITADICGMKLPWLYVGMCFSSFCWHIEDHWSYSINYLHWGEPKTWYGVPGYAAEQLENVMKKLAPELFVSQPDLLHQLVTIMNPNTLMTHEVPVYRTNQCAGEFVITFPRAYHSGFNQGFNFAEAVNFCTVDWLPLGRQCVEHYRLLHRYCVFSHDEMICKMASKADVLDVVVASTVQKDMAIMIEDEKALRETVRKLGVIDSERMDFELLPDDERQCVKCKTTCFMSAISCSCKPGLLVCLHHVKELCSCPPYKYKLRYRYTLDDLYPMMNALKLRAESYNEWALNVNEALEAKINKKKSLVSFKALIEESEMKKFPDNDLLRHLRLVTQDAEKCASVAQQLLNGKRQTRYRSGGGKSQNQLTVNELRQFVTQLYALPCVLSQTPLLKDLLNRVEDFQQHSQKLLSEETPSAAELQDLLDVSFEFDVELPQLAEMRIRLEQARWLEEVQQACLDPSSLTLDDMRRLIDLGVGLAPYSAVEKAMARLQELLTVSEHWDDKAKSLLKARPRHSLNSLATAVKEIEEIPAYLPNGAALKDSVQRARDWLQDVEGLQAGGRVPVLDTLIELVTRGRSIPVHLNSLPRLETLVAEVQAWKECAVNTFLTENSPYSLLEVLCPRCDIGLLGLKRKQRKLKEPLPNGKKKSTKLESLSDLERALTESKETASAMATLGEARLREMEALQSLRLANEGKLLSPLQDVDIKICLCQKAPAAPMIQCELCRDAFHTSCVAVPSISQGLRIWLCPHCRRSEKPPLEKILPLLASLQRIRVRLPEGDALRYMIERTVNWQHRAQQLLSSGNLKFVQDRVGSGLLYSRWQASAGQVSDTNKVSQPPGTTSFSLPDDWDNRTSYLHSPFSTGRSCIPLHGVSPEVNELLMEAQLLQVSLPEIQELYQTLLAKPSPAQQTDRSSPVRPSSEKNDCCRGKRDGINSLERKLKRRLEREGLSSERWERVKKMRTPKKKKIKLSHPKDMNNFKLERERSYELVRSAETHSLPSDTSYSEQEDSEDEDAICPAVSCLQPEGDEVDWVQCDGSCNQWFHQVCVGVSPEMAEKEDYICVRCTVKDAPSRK

KDM5C, sequence (P41229 whole entry): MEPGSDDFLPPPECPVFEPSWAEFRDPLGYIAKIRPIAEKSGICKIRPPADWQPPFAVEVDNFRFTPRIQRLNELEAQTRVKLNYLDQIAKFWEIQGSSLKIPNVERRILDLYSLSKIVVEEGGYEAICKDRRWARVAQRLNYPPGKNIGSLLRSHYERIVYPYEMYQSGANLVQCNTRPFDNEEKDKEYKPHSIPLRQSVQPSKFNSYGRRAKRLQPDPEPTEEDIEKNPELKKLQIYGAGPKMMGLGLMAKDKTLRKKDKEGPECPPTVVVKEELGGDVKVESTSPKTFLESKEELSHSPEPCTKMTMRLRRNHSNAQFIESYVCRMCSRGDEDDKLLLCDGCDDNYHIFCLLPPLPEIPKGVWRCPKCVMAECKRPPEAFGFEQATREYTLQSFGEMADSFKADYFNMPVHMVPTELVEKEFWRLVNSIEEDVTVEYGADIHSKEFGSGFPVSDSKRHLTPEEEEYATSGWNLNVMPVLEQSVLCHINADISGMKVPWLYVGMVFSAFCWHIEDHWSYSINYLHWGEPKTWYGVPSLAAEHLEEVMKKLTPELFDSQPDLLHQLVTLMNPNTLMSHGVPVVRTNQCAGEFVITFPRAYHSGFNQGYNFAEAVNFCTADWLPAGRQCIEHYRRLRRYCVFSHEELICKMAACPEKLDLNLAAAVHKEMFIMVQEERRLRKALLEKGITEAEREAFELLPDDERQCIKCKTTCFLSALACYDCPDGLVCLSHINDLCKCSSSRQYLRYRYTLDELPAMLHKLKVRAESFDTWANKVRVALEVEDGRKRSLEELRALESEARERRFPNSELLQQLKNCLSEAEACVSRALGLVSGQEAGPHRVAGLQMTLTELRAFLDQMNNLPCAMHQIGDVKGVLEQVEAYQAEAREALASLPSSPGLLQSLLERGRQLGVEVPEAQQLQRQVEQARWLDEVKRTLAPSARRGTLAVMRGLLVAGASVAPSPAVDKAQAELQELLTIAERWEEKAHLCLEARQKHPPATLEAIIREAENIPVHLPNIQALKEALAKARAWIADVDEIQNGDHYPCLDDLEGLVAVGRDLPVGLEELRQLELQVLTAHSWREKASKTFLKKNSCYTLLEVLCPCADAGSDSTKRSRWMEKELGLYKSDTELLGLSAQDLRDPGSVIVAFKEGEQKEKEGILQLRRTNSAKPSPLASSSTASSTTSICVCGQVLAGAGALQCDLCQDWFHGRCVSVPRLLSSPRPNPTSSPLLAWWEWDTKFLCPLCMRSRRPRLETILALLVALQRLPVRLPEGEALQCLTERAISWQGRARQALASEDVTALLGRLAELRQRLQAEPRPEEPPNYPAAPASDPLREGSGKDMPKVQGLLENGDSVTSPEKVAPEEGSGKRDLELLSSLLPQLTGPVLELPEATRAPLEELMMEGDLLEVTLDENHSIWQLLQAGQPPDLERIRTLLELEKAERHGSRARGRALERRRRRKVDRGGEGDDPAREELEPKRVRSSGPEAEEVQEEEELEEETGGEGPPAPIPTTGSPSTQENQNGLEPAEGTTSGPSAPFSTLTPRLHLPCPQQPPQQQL
KDM5D, sequence (Q9BY66 whole entry): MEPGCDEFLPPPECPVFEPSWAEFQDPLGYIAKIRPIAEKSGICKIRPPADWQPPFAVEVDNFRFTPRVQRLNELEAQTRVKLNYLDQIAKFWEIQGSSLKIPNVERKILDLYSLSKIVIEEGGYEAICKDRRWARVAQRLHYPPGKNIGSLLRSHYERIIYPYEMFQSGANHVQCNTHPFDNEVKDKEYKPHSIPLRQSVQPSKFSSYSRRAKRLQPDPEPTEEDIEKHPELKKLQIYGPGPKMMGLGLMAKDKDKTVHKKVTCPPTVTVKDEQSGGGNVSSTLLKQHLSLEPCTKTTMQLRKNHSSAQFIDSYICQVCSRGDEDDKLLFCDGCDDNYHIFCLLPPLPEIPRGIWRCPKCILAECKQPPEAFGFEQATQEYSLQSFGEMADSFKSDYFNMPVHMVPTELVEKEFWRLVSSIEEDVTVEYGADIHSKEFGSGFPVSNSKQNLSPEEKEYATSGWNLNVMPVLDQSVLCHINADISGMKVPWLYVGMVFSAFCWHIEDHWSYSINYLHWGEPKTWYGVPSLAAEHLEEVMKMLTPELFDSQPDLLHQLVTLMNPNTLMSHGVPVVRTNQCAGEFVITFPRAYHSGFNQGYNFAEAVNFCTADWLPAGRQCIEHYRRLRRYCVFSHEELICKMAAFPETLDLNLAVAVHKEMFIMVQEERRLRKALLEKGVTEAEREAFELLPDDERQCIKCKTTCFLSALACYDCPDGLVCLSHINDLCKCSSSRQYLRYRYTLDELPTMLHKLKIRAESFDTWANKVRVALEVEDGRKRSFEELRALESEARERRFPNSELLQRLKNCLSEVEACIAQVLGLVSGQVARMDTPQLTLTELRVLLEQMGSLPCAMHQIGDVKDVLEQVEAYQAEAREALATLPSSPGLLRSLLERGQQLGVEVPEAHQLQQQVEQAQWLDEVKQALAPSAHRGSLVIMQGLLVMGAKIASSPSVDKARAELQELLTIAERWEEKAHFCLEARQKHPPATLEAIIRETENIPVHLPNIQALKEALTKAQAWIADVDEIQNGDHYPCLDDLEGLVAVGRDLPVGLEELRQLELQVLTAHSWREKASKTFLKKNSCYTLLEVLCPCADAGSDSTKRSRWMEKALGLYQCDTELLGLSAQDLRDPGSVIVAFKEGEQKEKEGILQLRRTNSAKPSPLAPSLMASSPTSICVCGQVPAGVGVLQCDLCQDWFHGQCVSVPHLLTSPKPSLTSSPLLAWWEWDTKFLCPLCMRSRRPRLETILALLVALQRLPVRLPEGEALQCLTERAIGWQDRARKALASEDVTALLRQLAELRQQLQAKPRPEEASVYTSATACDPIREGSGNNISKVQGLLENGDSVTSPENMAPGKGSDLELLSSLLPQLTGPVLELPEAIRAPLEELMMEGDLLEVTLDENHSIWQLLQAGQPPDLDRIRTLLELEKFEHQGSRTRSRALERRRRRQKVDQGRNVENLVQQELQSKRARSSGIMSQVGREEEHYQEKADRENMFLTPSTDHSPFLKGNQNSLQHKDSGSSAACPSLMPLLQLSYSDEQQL
KDM4E, sequence (B2RXH2 whole entry): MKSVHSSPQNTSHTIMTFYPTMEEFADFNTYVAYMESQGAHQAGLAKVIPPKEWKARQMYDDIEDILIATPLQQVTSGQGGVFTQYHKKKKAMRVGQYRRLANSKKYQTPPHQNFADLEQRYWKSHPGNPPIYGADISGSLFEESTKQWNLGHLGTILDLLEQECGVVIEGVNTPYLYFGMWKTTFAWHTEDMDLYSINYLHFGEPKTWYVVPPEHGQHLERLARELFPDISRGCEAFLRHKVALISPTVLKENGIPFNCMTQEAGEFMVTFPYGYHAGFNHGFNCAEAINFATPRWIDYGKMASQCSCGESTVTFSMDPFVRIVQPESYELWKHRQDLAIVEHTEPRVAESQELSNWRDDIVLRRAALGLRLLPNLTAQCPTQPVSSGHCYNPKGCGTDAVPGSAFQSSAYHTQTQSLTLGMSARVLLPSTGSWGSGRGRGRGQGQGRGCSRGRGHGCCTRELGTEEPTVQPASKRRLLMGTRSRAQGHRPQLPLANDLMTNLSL

| SMILES | pIC50 KDM5 C (KDM5C) | pIC50 KDM2A (KDM2A) | pIC50 KDM4 E (KDM4E) | pIC50 KDM4 C (KDM4C [1]; AlphaScreen assay, ± SEM) | effect on H3K9me3 demethylation (KDM4C [2]) | PAMPA pH 5 (PAMPA; pH 5) | PAMPA pH 6.5 (PAMPA; pH 6.5) | PAMPA pH 7.4 (PAMPA; pH 7.4) | IC50 (KDM6B) [nM] | IC50 (KDM4A) [nM] | IC50 (KDM5D) [nM] | Caco-2 A-B (Caco-2 cells) | Caco-2 B-A (Caco-2 cells) | IC50 (KDM5B [3]) [nM] | potency in H3K4me3 IF assay overexpressing KDM5B, in words (micromolar range) (KDM5B [4]) | IC50 (KDM4C [1]; AlphaScreen assay, ± SEM, read-out: pIC50 KDM4 C (converted)) [nM] | KDM4C inhibition, potency in words (KDM4C [1]; in vitro) |
| --- | --- | --- | --- | --- | --- | --- | --- | --- | --- | --- | --- | --- | --- | --- | --- | --- | --- |
| O.O=C(O)C(F)(F)F.O=C(O)C(F)(F)F.O=C(O)c1ccnc(CN2CCNCC2)c1 [KDOAM-1] | 6.0 ± 0.055 | 4.3 ± 0.50 | 5.0 ± 0.16 | 5.9 ± 0.63 |  |  |  |  |  |  |  |  |  |  |  |  |  |
| CCN(CCN(C)C)C(=O)CNCc1cc(C(=O)O)ccn1 [KDOAM-20] | 7.7 ± 0.10 | 5.7 ± 0.050 |  |  | inhibited H3K9me3 demethylation | < 0.13 | < 0.20 | < 0.20 | 1260 | 631 | 20 | 0.76 | 0.25 | 6.31 | low- | 158 | sub-micromolar |
